pEC50: −log10 of the molar value.
target: T1, Extracellular calcium-sensing receptor (Homo sapiens, UniProt P41180); assay: Agonist activity at human CaSR expresssed in HEK293 cells in presence of glucose by Fluo4NW dye based FLIPR assay; assay type: functional, cell-based; settings: hek293
T1 sequence (P41180 whole entry): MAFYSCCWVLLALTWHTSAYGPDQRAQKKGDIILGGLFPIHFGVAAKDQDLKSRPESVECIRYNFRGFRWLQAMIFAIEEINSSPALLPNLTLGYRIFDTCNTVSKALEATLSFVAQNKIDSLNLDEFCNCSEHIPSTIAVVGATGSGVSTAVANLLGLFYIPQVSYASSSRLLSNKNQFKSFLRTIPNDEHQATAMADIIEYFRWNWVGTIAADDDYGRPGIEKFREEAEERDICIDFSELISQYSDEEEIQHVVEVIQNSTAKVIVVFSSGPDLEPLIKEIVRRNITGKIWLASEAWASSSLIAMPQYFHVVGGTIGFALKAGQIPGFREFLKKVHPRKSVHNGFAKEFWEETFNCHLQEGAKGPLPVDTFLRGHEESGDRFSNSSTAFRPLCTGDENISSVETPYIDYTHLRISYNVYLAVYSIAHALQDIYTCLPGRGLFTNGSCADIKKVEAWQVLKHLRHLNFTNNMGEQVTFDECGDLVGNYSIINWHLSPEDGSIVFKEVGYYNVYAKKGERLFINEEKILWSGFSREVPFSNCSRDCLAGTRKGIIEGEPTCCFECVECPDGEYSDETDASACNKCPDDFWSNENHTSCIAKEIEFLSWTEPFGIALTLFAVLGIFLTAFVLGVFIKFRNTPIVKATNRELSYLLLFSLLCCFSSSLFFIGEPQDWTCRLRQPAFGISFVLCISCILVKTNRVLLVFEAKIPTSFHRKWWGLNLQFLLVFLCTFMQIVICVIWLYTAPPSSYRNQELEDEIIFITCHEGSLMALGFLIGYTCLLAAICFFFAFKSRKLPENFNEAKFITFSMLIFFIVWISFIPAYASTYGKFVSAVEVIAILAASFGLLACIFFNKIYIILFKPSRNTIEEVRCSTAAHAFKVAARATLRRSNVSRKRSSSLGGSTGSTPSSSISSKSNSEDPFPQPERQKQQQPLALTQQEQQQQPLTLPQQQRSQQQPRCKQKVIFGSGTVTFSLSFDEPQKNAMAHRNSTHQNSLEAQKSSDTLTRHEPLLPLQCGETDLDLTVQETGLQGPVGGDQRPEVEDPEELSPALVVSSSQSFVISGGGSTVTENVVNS

With C[C@@H](NCC1CN(c2cccc(CCC(=O)O)c2)c2ccccc2O1)c1cccc2ccccc12.Cl (mixture of isomers) the EC50 was “Not Active”.
With C[C@@H](NCC1CN(c2ccccc2C(=O)O)c2ccccc2O1)c1cccc2ccccc12.Cl (mixture of isomers) the EC50 was “Not Active”.

same assay, conditions: read-out: EC50

Cc1c(C(=O)O)cccc1N1CC(CN[C@H](C)c2cccc3ccccc23)Oc2ccccc21.Cl (mixture of isomers; form 1) and Cc1ccc(N2CC(CN[C@H](C)c3cccc4ccccc34)Oc3ccccc32)cc1C(=O)O (mixture of isomers) are within 0.2 log units of each other in pEC50: 7.32 for the first, 7.15 for the second.

First: Cc1ccc([C@@H]2C[C@@H](CN[C@H](C)c3cccc4ccccc34)Oc3ccccc32)cc1C(=O)O
Second: Cc1ccc([C@H]2C[C@@H](CN[C@H](C)c3cccc4ccccc34)Oc3ccccc32)cc1C(=O)O
The pEC50 of the first is 0.96 log units lower: 7.47 for the first, 8.43 for the second. The second is the more potent here.

Cc1cc(C(=O)O)cc(N2CC(CN[C@H](C)c3cccc4ccccc34)Oc3ccccc32)c1 (mixture of isomers; form 2) and C[C@@H](NCC1CN(c2cccc(C(=O)O)c2)c2ccccc2O1)c1cccc2ccccc12 (mixture of isomers; form 2) are within 0.2 log units of each other in pEC50: 6.77 for the first, 6.84 for the second.

C[C@@H](NCC1CN(c2cccc(CCC(=O)O)c2)c2ccccc2O1)c1cccc2ccccc12.Cl (mixture of isomers) and C[C@@H](NCC1CN(c2cccc(CC(=O)O)c2)c2ccccc2O1)c1cccc2ccccc12 (some centres not stated) are within 0.2 log units of each other in pEC50: 7.15 for the first, 6.98 for the second.

Going from COc1ccc(N2CC(CN[C@H](C)c3cccc4ccccc34)Oc3ccccc32)cc1C(=O)O (mixture of isomers; form 2) to C[C@@H](NCC1CN(c2cccc(C(=O)O)c2)c2ccccc2O1)c1cccc2ccccc12 (mixture of isomers; form 1), the pEC50 rises from under 7.05 to 7.48.

First: Cc1cc(C(=O)O)cc([C@@H]2C[C@H](CN[C@H](C)c3cccc4ccccc34)Oc3ccccc32)c1
Second: Cc1ccc([C@H]2C[C@H](CN[C@H](C)c3cccc4ccccc34)Oc3ccccc32)cc1C(=O)O
The pEC50 of the first is 0.85 log units higher: 8.08 for the first, 7.23 for the second.

First: Cc1cc(C(=O)O)cc(N2CC(CN[C@H](C)c3cccc4ccccc34)Oc3ccccc32)c1 (mixture of isomers; form 1)
Second: Cc1c(C(=O)O)cccc1N1CC(CN[C@H](C)c2cccc3ccccc23)Oc2ccccc21.Cl (mixture of isomers; form 2)
The pEC50 of the first is 0.23 log units lower: 7.08 for the first, 7.31 for the second.

Compared with C[C@@H](NCC1CN(c2cccc(OCC(=O)O)c2)c2ccccc2O1)c1cccc2ccccc12 (some centres not stated), C[C@@H](NCC1CN(c2ccccc2)c2ccccc2O1)c1cccc2ccccc12 (mixture of isomers; form 2) is 0.50 log units lower in pEC50: 7.44 for the first, 6.94 for the second.

target: T2, CYP2D6 (Homo sapiens, UniProt P10635); assay: Inhibition of CYP2D6 in human liver microsomes at 1 uM preincubated for 5 mins followed by NADPH addition by LC-MS/MS analysis relative to control; assay type: ADME, Microsome; settings: not given
T2 sequence (P10635 whole entry): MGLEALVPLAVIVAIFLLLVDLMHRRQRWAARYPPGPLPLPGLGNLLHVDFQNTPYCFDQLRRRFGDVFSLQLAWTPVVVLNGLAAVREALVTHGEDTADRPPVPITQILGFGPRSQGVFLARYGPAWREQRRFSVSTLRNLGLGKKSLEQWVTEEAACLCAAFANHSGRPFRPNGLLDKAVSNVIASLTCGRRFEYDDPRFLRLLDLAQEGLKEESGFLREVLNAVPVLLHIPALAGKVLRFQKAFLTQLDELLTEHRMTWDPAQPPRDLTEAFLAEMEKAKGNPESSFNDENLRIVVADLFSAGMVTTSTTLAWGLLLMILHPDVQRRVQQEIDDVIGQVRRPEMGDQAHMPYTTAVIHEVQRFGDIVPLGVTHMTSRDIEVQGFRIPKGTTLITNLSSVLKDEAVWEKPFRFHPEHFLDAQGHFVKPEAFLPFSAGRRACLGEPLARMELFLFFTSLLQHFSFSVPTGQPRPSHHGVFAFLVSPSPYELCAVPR

In order of falling inhibition at 1 µM:
1. C[C@@H](NCC1CN(c2cccc(C(=O)O)c2)c2ccccc2O1)c1cccc2ccccc12 (mixture of isomers; form 1)  27%
2. Cc1c(C(=O)O)cccc1N1CC(CN[C@H](C)c2cccc3ccccc23)Oc2ccccc21.Cl (mixture of isomers; form 1)  26%
3. Cc1ccc([C@@H]2C[C@@H](CN[C@H](C)c3cccc4ccccc34)Oc3ccccc32)cc1C(=O)O  8%
4. Cc1ccc([C@H]2C[C@@H](CN[C@H](C)c3cccc4ccccc34)Oc3ccccc32)cc1C(=O)O  7%
5. C[C@@H](NCC1CN(c2cccc(OCC(=O)O)c2)c2ccccc2O1)c1cccc2ccccc12 (some centres not stated)  6%
6. Cc1cc(C(=O)O)cc([C@@H]2C[C@H](CN[C@H](C)c3cccc4ccccc34)Oc3ccccc32)c1  0%

target: T2, CYP2D6; assay: Inhibition of CYP2D6 in human liver microsomes at 10 uM preincubated for 5 mins followed by NADPH addition by LC-MS/MS analysis relative to control; assay type: ADME, Microsome; settings: not given

In order of falling inhibition at 10 µM:
1. Cc1c(C(=O)O)cccc1N1CC(CN[C@H](C)c2cccc3ccccc23)Oc2ccccc21.Cl (mixture of isomers; form 1)  43%
2. Cc1ccc([C@@H]2C[C@@H](CN[C@H](C)c3cccc4ccccc34)Oc3ccccc32)cc1C(=O)O  41%
3. C[C@@H](NCC1CN(c2cccc(C(=O)O)c2)c2ccccc2O1)c1cccc2ccccc12 (mixture of isomers; form 1)  41%
4. C[C@@H](NCC1CN(c2cccc(OCC(=O)O)c2)c2ccccc2O1)c1cccc2ccccc12 (some centres not stated)  36%
5. Cc1cc(C(=O)O)cc([C@@H]2C[C@H](CN[C@H](C)c3cccc4ccccc34)Oc3ccccc32)c1  33%
6. Cc1ccc([C@H]2C[C@@H](CN[C@H](C)c3cccc4ccccc34)Oc3ccccc32)cc1C(=O)O  32%

target: T3, Voltage-gated inwardly rectifying potassium channel KCNH2 (Homo sapiens, UniProt Q12809); assay: (§1) Inhibition of hERG at 1 uM relative to control; assay type: toxicity; settings: 1 µM
T3 sequence (Q12809 whole entry): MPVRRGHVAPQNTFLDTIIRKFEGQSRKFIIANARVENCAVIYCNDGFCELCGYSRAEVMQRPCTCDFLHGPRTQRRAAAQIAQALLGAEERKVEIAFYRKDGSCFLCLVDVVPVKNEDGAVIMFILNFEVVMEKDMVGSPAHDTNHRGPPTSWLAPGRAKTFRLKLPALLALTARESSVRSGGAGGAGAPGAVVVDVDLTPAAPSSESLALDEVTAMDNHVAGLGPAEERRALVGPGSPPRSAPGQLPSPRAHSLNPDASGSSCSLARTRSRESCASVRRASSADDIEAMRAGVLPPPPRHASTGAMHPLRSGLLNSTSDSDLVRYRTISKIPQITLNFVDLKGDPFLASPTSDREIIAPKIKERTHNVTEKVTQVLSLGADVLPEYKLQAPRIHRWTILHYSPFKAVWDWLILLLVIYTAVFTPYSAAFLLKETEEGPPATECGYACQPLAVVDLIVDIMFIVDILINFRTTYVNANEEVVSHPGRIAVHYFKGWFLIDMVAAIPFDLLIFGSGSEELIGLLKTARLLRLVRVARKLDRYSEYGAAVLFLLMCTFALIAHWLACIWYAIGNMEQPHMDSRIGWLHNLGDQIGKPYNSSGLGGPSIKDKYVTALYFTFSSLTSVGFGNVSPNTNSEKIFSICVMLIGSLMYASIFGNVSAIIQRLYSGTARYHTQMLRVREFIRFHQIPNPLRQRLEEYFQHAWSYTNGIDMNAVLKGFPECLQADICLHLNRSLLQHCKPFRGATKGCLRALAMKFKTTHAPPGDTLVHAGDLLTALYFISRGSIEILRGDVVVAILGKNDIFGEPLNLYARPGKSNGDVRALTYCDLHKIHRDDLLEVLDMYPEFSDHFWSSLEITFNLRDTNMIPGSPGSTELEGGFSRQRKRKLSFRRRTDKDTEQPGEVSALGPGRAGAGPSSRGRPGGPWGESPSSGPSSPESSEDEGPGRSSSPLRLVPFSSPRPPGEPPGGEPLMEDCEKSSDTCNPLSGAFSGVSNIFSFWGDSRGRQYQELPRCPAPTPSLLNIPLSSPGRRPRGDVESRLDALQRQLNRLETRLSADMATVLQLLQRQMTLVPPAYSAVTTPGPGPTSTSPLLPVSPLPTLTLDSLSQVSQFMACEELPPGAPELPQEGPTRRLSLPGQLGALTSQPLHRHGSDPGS

In order of rising “inhibition (INH)” value:
1. Cc1c(C(=O)O)cccc1N1CC(CN[C@H](C)c2cccc3ccccc23)Oc2ccccc21.Cl (mixture of isomers; form 2)  -28%
2. Cc1c(C(=O)O)cccc1N1CC(CN[C@H](C)c2cccc3ccccc23)Oc2ccccc21.Cl (mixture of isomers; form 1)  -8%

target: T4, hERG (Homo sapiens, UniProt Q12809); assay: as §1; assay type: toxicity; settings: not given
T4 sequence (Q12809 whole entry): as above

In order of falling inhibition at 1 µM:
1. C[C@@H](NCC1CN(c2cccc(OCC(=O)O)c2)c2ccccc2O1)c1cccc2ccccc12 (some centres not stated)  43%
2. Cc1ccc([C@H]2C[C@@H](CN[C@H](C)c3cccc4ccccc34)Oc3ccccc32)cc1C(=O)O  9%
3. Cc1ccc([C@@H]2C[C@@H](CN[C@H](C)c3cccc4ccccc34)Oc3ccccc32)cc1C(=O)O  4%
4. Cc1cc(C(=O)O)cc([C@@H]2C[C@H](CN[C@H](C)c3cccc4ccccc34)Oc3ccccc32)c1  0%
5. C[C@@H](NCC1CN(c2cccc(C(=O)O)c2)c2ccccc2O1)c1cccc2ccccc12 (mixture of isomers; form 1)  -1%

target: T3, Voltage-gated inwardly rectifying potassium channel KCNH2; assay: (§2) Inhibition of hERG at 10 uM relative to control; assay type: toxicity; settings: 10 µM

In order of rising “inhibition (INH)” value:
1. Cc1c(C(=O)O)cccc1N1CC(CN[C@H](C)c2cccc3ccccc23)Oc2ccccc21.Cl (mixture of isomers; form 2)  -16%
2. Cc1c(C(=O)O)cccc1N1CC(CN[C@H](C)c2cccc3ccccc23)Oc2ccccc21.Cl (mixture of isomers; form 1)  -5%

target: T4, hERG; assay: as §2; assay type: toxicity; settings: not given

In order of falling inhibition at 10 µM:
1. C[C@@H](NCC1CN(c2cccc(OCC(=O)O)c2)c2ccccc2O1)c1cccc2ccccc12 (some centres not stated)  66%
2. Cc1cc(C(=O)O)cc([C@@H]2C[C@H](CN[C@H](C)c3cccc4ccccc34)Oc3ccccc32)c1  6%
3. Cc1ccc([C@H]2C[C@@H](CN[C@H](C)c3cccc4ccccc34)Oc3ccccc32)cc1C(=O)O  1%
4. Cc1ccc([C@@H]2C[C@@H](CN[C@H](C)c3cccc4ccccc34)Oc3ccccc32)cc1C(=O)O  -1%
5. C[C@@H](NCC1CN(c2cccc(C(=O)O)c2)c2ccccc2O1)c1cccc2ccccc12 (mixture of isomers; form 1)  -8%

test system: not listed separately; assay: Microsomal stability in rat liver microsomes assessed as parent compound remaining at 1 uM measured upto 30 mins in presence of NADPH by LC-MS/MS analysis; assay type: ADME, Microsome; settings: read-out: Stability; call rule not given here

In order of falling remaining at 0.5 h, 1 µM:
1. C[C@@H](NCC1CN(c2cccc(OCC(=O)O)c2)c2ccccc2O1)c1cccc2ccccc12 (some centres not stated)  87%
2. Cc1ccc([C@H]2C[C@@H](CN[C@H](C)c3cccc4ccccc34)Oc3ccccc32)cc1C(=O)O  62%
3. Cc1ccc([C@@H]2C[C@@H](CN[C@H](C)c3cccc4ccccc34)Oc3ccccc32)cc1C(=O)O  47%
4. Cc1c(C(=O)O)cccc1N1CC(CN[C@H](C)c2cccc3ccccc23)Oc2ccccc21.Cl (mixture of isomers; form 1)  45%
5. C[C@@H](NCC1CN(c2cccc(C(=O)O)c2)c2ccccc2O1)c1cccc2ccccc12 (mixture of isomers; form 1)  36%
6. Cc1cc(C(=O)O)cc([C@@H]2C[C@H](CN[C@H](C)c3cccc4ccccc34)Oc3ccccc32)c1  25%

test system: not listed separately; assay: Microsomal stability in human liver microsomes assessed as parent compound remaining at 1 uM measured upto 30 mins in presence of NADPH by LC-MS/MS analysis; assay type: ADME, Microsome; settings: liver microsomes, read-out: Stability

In order of falling remaining at 0.5 h, 1 µM:
1. Cc1cc(C(=O)O)cc([C@@H]2C[C@H](CN[C@H](C)c3cccc4ccccc34)Oc3ccccc32)c1  80%
2. Cc1ccc([C@@H]2C[C@@H](CN[C@H](C)c3cccc4ccccc34)Oc3ccccc32)cc1C(=O)O  74%
3. Cc1ccc([C@H]2C[C@@H](CN[C@H](C)c3cccc4ccccc34)Oc3ccccc32)cc1C(=O)O  74%
4. C[C@@H](NCC1CN(c2cccc(C(=O)O)c2)c2ccccc2O1)c1cccc2ccccc12 (mixture of isomers; form 1)  49%
5. C[C@@H](NCC1CN(c2cccc(OCC(=O)O)c2)c2ccccc2O1)c1cccc2ccccc12 (some centres not stated)  45%

same assay, conditions: microsomes, 0.5 h, 1 µM

In order of falling Stability:
1. Cc1c(C(=O)O)cccc1N1CC(CN[C@H](C)c2cccc3ccccc23)Oc2ccccc21.Cl (mixture of isomers; form 1)  40%
2. Cc1c(C(=O)O)cccc1N1CC(CN[C@H](C)c2cccc3ccccc23)Oc2ccccc21.Cl (mixture of isomers; form 2)  10%

— ChEMBL document CHEMBL5346964, “Discovery of LNP1892: A Precision Calcimimetic for the Treatment of Secondary Hyperparathyroidism” (J Med Chem, 2023)
